The values that follow come from ChEMBL document CHEMBL1201862, “PubChem BioAssay data set” (2004).

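Exposure lasted 48 hours, with cells grown in 96-well plates and compounds tested at five concentrations. Here, GI50 denotes the concentration required for 50% inhibition of growth.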 The source made the active and inactive calls. No stated cut-off is given here; in the data, active = GI50 up to about 1.1 µM and inactive = higher. Where only a bound is given, the exact number is not on record here.

Among the test systems are COLO 205; T47D; KM12; M14; SK-OV-3; HOP-92; DU-145; SF-539; HCC 2998; SW-620; MDA-MB-435; NCI/ADR-RES; MDA-N; SK-MEL-2; PC-3; LOX IMVI; UO-31; SK-MEL-5; SF-268.
Common to all, as to assay: NCI anticancer screen, dose series, 48 h

Turning to `CN1CCN(C2=CC(=O)c3c(O)ccc(O)c3C2=O)CC1`, the GI50 with COLO 205 is 0.166 µM (active); with T47D it was 0.69 µM (active); with KM12, 2.07 µM (inactive); with M14, 0.647 µM (active); in the assay on SK-OV-3, 5.02 µM (inactive); in the assay with HOP-92, 1.86 µM (inactive). The GI50 was 1.75 µM (inactive) in the assay on DU-145; 1.61 µM (inactive) with SF-539; 1.82 µM (inactive) in the assay on HCC 2998; 0.618 µM (active) with SW-620; 0.188 µM (active) with MDA-MB-435; 1.04 µM (active) with NCI/ADR-RES. In addition, the GI50 in the assay with MDA-N is 0.175 µM (active); with SK-MEL-2 it was 2.45 µM (inactive); in the assay on PC-3, 0.412 µM (active); in the assay with LOX IMVI, 0.547 µM (active); with UO-31 it was 1.55 µM (inactive); with SK-MEL-5 it was 0.179 µM (active). The GI50 with SF-268 was 1.57 µM (inactive).

For the compound `C/C1=C/C2=CC(C)C[C@@H]2C(=O)[C@]2(C)C(=O)CC(C)(C)[C@H]2CC1=O` (stereo not given in full), the GI50 in the assay with COLO 205, in the assay with T47D, in the assay with KM12, with M14, with SK-OV-3 and in the assay on HOP-92 was > 50 µM (inactive) throughout. For the same compound, the GI50 in the assay with DU-145, in the assay with SF-539, with HCC 2998, in the assay with SW-620, in the assay with MDA-MB-435 and with NCI/ADR-RES was > 50 µM (inactive) in each case. Also, the GI50 in the assay on MDA-N, with SK-MEL-2, in the assay on PC-3, in the assay on LOX IMVI, in the assay with UO-31 and in the assay on SK-MEL-5 was > 50 µM (inactive) throughout. For the same compound, the GI50 in the assay with SF-268 was > 50 µM (inactive).

Take `COC(=O)c1sc2c(c1C(=O)OC)/C(=N/C(C)(C)C)S/C2=N\C(C)(C)C`: the GI50 is 17.4 µM (inactive) with COLO 205; 12.2 µM (inactive) in the assay on T47D; 16.3 µM (inactive) in the assay on KM12; 16.7 µM (inactive) in the assay on M14; 25.4 µM (inactive) in the assay on SK-OV-3; 18.7 µM (inactive) in the assay on HOP-92. Besides, the GI50 was 15.5 µM (inactive) in the assay on DU-145; 16.6 µM (inactive) with SF-539; 14.8 µM (inactive) with HCC 2998; 17.9 µM (inactive) with SW-620; 18.4 µM (inactive) in the assay with MDA-MB-435; 19.8 µM (inactive) with NCI/ADR-RES. Further, the GI50 in the assay with MDA-N was 17.9 µM (inactive); in the assay on SK-MEL-2, 17.1 µM (inactive); with PC-3, 19.1 µM (inactive); in the assay on LOX IMVI, 19.5 µM (inactive); with UO-31 it was 0.14 µM (active); in the assay with SK-MEL-5, 14.8 µM (inactive). In addition, the GI50 with SF-268 is 19.1 µM (inactive).

As to `CC1=C(C(=S)Nc2ccc(Cl)c(C(=O)OC(C)C)c2)SCCO1`, the GI50 was 20 µM (inactive) with COLO 205; 19.6 µM (inactive) in the assay with T47D; 19.4 µM (inactive) in the assay on KM12; 18.8 µM (inactive) with M14; 20.4 µM (inactive) in the assay on SK-OV-3; 18.7 µM (inactive) with HOP-92. Further, the GI50 is 20.3 µM (inactive) with DU-145; 18.7 µM (inactive) in the assay on SF-539; 14.7 µM (inactive) in the assay with HCC 2998; 20.2 µM (inactive) with SW-620; 19.3 µM (inactive) in the assay with MDA-MB-435; 18.8 µM (inactive) in the assay with NCI/ADR-RES. For the same compound, the GI50 was 18.6 µM (inactive) with MDA-N; 21.5 µM (inactive) with SK-MEL-2; 16.9 µM (inactive) in the assay on PC-3; 15.5 µM (inactive) in the assay on LOX IMVI; 14.9 µM (inactive) with UO-31; 16.9 µM (inactive) with SK-MEL-5. The GI50 in the assay on SF-268 is 25.1 µM (inactive).

Take `CC(=O)OCC1OC(n2c(N)c(C#N)c(-c3ccc(C)cc3)c(C#N)c2=S)C(OC(C)=O)C(OC(C)=O)C1OC(C)=O` (stereo not given): the GI50 in the assay on COLO 205 is 16 µM (inactive); with T47D, 17.5 µM (inactive); with KM12, 79.1 µM (inactive); in the assay with M14, 16.4 µM (inactive); with SK-OV-3, 24.5 µM (inactive); with HOP-92 it was 15.2 µM (inactive). The GI50 in the assay with DU-145 was 15.4 µM (inactive); with SF-539 it was 4.91 µM (inactive); in the assay on HCC 2998 it was 16.9 µM (inactive); with SW-620, 36 µM (inactive); in the assay with MDA-MB-435 it was 21.2 µM (inactive); in the assay with NCI/ADR-RES it was 30 µM (inactive). The GI50 in the assay with MDA-N is 17.1 µM (inactive); in the assay with SK-MEL-2 it was 15.2 µM (inactive); with PC-3, 31.8 µM (inactive); with LOX IMVI, 32.7 µM (inactive); in the assay with UO-31, 17.9 µM (inactive); in the assay with SK-MEL-5, 11.1 µM (inactive). Moreover, the GI50 in the assay with SF-268 is 15.2 µM (inactive).

`Cc1cc(NS(=O)(=O)c2ccc(NC(=O)c3ccc4[nH]c5ccccc5c(=O)c4c3)cc2)no1`: the GI50 is > 100 µM (inactive) with COLO 205; 69.7 µM (inactive) in the assay on T47D; 44.1 µM (inactive) in the assay on KM12; > 100 µM (inactive) in the assay with M14; > 100 µM (inactive) in the assay on SK-OV-3; 88.3 µM (inactive) with HOP-92. The GI50 is > 100 µM (inactive) with DU-145; 68.1 µM (inactive) with SF-539; 85.3 µM (inactive) with HCC 2998; > 100 µM (inactive) in the assay on SW-620; > 100 µM (inactive) in the assay on MDA-MB-435; > 100 µM (inactive) in the assay on NCI/ADR-RES. Also, the GI50 is > 100 µM (inactive) with MDA-N; 75.3 µM (inactive) in the assay on SK-MEL-2; > 100 µM (inactive) in the assay with PC-3; 46.5 µM (inactive) in the assay with LOX IMVI; > 100 µM (inactive) with UO-31; > 100 µM (inactive) in the assay on SK-MEL-5. Besides, the GI50 in the assay with SF-268 was > 100 µM (inactive).

For the compound `C#CC1NC(=O)C1N(CC)CC` (stereo not given), the GI50 in the assay with COLO 205, in the assay with T47D, with KM12, in the assay on M14, with SK-OV-3 and in the assay on HOP-92 was > 100 µM (inactive) throughout. For the same compound, the GI50 in the assay on DU-145, with SF-539, in the assay with HCC 2998, with SW-620, with MDA-MB-435 and in the assay with NCI/ADR-RES was > 100 µM (inactive) each time. For the same compound, the GI50 in the assay with MDA-N, with SK-MEL-2, in the assay with PC-3, in the assay on LOX IMVI, in the assay on UO-31 and in the assay with SK-MEL-5 was > 100 µM (inactive) throughout. For the same compound, the GI50 in the assay on SF-268 is > 100 µM (inactive).

In the case of `Cc1ccc(S(=O)(=O)N/N=C2/CC[C@H](C(C)(C)C)C[C@@H]2C)cc1`, the GI50 was 17 µM (inactive) in the assay with COLO 205; 10.6 µM (inactive) in the assay on T47D; 22.6 µM (inactive) with KM12; 13.7 µM (inactive) with M14; 18.4 µM (inactive) with SK-OV-3; 16.7 µM (inactive) in the assay on HOP-92. The GI50 in the assay on DU-145 is 15.2 µM (inactive); in the assay on SF-539 it was 18.2 µM (inactive); with HCC 2998 it was 18.9 µM (inactive); in the assay with SW-620, 22.5 µM (inactive); with MDA-MB-435, 16 µM (inactive); in the assay with NCI/ADR-RES, 15 µM (inactive). Also, the GI50 in the assay on MDA-N is 17.1 µM (inactive); with SK-MEL-2, 17.1 µM (inactive); in the assay on PC-3, 18.3 µM (inactive); with LOX IMVI, 14.7 µM (inactive); with UO-31, 13.7 µM (inactive); with SK-MEL-5, 13.8 µM (inactive). Besides, the GI50 in the assay with SF-268 is > 10 µM (inactive).

As to `NC(=O)c1csc(C2(O)COC(CO)C2O)n1` (stereo not given), the GI50 in the assay with COLO 205, in the assay with T47D, with KM12, in the assay on M14, in the assay on SK-OV-3 and in the assay on HOP-92 was > 100 µM (inactive) each time. Moreover, the GI50 in the assay with DU-145, with SF-539, in the assay on HCC 2998, in the assay on SW-620, with MDA-MB-435 and in the assay on NCI/ADR-RES was > 100 µM (inactive) in each case. For the same compound, the GI50 with MDA-N, in the assay on SK-MEL-2, in the assay with PC-3, in the assay with LOX IMVI, in the assay with UO-31 and in the assay with SK-MEL-5 was > 100 µM (inactive) each time. Also, the GI50 in the assay on SF-268 was > 100 µM (inactive).

For the compound `COc1ccc(/C=c2/[nH]c(=O)/c(=C\c3ccc(OCc4ccccc4)cn3)[nH]c2=O)cc1`, the GI50 in the assay on COLO 205 is 32.2 µM (inactive); with T47D, > 100 µM (inactive); in the assay on KM12, 47.1 µM (inactive); in the assay with M14, 62.8 µM (inactive); in the assay with SK-OV-3, 55 µM (inactive); in the assay with HOP-92, 23.2 µM (inactive). Also, the GI50 with DU-145 is > 100 µM (inactive); in the assay with SF-539, 32.4 µM (inactive); with HCC 2998, > 100 µM (inactive); in the assay with SW-620, 62.4 µM (inactive); in the assay with MDA-MB-435 it was 19.9 µM (inactive); with NCI/ADR-RES it was 58.1 µM (inactive). For the same compound, the GI50 is 19.8 µM (inactive) in the assay on MDA-N; 51.8 µM (inactive) in the assay with SK-MEL-2; > 100 µM (inactive) in the assay with PC-3; 82.4 µM (inactive) with LOX IMVI; 0.889 µM (active) with UO-31; 50.2 µM (inactive) in the assay with SK-MEL-5. Moreover, the GI50 in the assay with SF-268 was 41.2 µM (inactive).
